Read-outs that look alike come from different tables or passages of the source.
Columns and labels:
MCF-7 = test: MTT cytotoxicity assay, MCF-7; type: cell-based, human; conditions: Table 7, read-out: GI50 ± SC (μM) MCF-7
Description: (§1) The compounds were incubated with the cells for 72 hours in a five-dose assay ranging from 0.01 to 100 μM concentration. At the end of the incubation, the MTT solution was added to test the percentage growth of tumor cells.
(§2) For the drug treatment experiments, the cancer cells were treated with the compounds (predissolved in DMSO) at a five-dose assay ranging from 0.01 to 100 μM concentration. […] After 4 h incubation, the formazan crystal formed in the well was dissolved with […] of DMSO for optical density reading at 570 nm. The GI50 value was calculated by nonlinear regression analysis (GraphPad Prism).

CCRF-CEM = test: MTT cytotoxicity assay, CCRF-CEM; type: cell-based, human; conditions: 72 h, Table 1b
Description: (§3) Cytotoxicity Assays. […] The cells were incubated with the tested compounds for 72 hours in a five-dose assay ranging from 0.01 to 100 μM concentration. After drug treatments, MTT solution was added to test the percentage growth of tumor cells.
as §2

Top1 = target: T1, Top1 (Homo sapiens, UniProt P11387); test: Top1-mediated DNA cleavage assay; type: biochemical
T1 sequence (P11387 1-765): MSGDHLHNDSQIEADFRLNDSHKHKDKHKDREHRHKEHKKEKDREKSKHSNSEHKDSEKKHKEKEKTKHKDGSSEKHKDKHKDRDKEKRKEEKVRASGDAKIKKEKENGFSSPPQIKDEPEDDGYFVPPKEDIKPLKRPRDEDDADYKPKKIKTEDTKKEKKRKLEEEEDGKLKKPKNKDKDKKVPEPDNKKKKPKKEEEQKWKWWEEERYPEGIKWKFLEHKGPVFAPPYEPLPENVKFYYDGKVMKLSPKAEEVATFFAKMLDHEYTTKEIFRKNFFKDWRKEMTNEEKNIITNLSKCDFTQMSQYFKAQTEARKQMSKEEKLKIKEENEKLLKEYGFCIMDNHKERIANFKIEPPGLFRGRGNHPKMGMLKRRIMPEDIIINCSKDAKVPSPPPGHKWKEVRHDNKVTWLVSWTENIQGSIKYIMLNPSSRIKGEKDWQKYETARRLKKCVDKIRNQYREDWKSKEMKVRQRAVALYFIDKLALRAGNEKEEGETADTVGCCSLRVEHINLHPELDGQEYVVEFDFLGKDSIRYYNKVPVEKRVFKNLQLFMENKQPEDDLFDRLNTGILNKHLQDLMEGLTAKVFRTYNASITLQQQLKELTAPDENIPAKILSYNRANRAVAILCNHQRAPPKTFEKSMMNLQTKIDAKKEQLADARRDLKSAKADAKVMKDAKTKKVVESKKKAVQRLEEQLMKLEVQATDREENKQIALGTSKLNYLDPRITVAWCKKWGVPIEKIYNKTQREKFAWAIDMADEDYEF

[1] = target: T2, Top1-DNA covalent cleavage complexes in HCT116 cells (Homo sapiens, UniProt P11387); test: Immunocomplex of enzyme to DNA (ICE) assay; type: cell-based; conditions: HCT116, 25, 50 and 100 μM
T2 construct: endogenous in cells; host or cells: HCT116 (human colon cancer)

Huh7 = test: MTT cytotoxicity assay, Huh7; type: cell-based, human; conditions: Table 1b
Description: as §3, §2

A549 = test: MTT cytotoxicity assay, A549; type: cell-based, human
Description: as §3, §1, §2

HCT116 = test: MTT cytotoxicity assay, HCT116; type: cell-based, human; conditions: 72 h
Description: as §3, §1, §2

DU145 = test: MTT cytotoxicity assay, DU145; type: cell-based, human; conditions: 72 h
Description: as §3, §1, §2

Tdp1 = Tdp1 (Homo sapiens, UniProt Q9NUW8); test: Tdp1 inhibition fluorescence assay; type: biochemical; conditions: compounds at 100 μM
Chain of Tdp1 (Q9NUW8 whole entry): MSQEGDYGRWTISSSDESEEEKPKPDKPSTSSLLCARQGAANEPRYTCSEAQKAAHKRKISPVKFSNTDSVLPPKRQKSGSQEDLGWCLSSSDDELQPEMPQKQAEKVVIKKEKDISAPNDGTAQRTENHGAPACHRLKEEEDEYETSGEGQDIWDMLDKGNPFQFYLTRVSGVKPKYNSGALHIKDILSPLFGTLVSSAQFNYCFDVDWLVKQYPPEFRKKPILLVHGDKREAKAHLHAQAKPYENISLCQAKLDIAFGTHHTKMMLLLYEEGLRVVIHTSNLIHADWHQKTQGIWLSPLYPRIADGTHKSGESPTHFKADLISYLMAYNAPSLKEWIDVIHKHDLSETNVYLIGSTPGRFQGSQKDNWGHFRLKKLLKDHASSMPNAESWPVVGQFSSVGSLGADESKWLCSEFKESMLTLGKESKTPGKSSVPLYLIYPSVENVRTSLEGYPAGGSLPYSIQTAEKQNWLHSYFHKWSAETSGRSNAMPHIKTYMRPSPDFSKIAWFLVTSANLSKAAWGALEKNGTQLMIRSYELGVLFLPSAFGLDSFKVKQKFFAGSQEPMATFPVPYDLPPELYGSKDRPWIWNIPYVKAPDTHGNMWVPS
Description: Tdp Inhibition. […] The compounds were tested at 100 μM concentration. […] Fluorescence assay. […] Tdp1 solution (20 μL/well, 0.02 μL purified Tdp1 (100 nM) in 10 mM Tris-HCl, pH 7.5, 50 mM KCL, I mM EDTA, 1 mM DTT) was dispensed into wells of a white 384-well plate (NEST). The tested compound solution in DMSO (5 μL) was pinned into assay plates and incubated at room temperature for 30 min. […] Tdp percentage inhibition of the tested compounds was calculated by comparing the rate of increase in fluorescence throughout time for the compound-treated wells to that of DMSO control wells.

[2] = graded relative to CPT at 1 μM, Table 7
[3] = Table 1b, read-out: GI50 (μM) HCT116
[4] = Table 1b, read-out: GI50 (μM) DU145
[5] = 72 h, Table 1b, read-out: GI50 (μM) A549
[6] = Table 7, read-out: GI50 ± SC (μM) HCT116
[7] = Table 7, read-out: GI50 ± SC (μM) DU145
[8] = 72 h, Table 7, read-out: GI50 ± SC (μM) A-49

Molecule | TOP1 inhibition (Top1; [2]) | GI50 (MCF-7; 72 h) | GI50 (HCT116; [6]) | GI50 (DU145; [7]) | GI50 (A549; [8]) | further results
CC[C@@]1(O)C(=O)OCc2c1cc1n(c2=O)Cc2cc3ccccc3nc2-1 [Compound 1, camptothecin, reference compound] | ++++ |  |  |  |  | GI50 (MCF-7; Homo sapiens, MCF7, 72 h): 0.012 ± 0.002 µM; GI50 (CCRF-CEM; Homo sapiens, CCRF-CEM): 0.007 ± 0.003 µM; TOP1 inhibition (Top1; semi-quantitative score relative to CPT (1) at 1 μM, tested at 0.1-100 μM): ++++ (++++, equal activity); induction of cellular Top1cc [1]: induced the formation of cellular TOP1 cc in a dose-dependent manner; GI50 (Huh7; Homo sapiens, Huh-7, 72 h): 0.099 ± 0.017 µM; GI50 (A549; Homo sapiens, A549, 72 h, Table 7, read-out: GI50 ± SC (μM) A-49): 0.099 ± 0.017 µM
COc1cc2c(=O)n(C)c3c4cc5c(cc4ccc3c2cc1OC)OCO5 [Compound 6, oxynitidine, reference compound] |  |  |  |  |  | GI50 (CCRF-CEM): 26.5 ± 5.41 µM; GI50 (HCT116; [3]): 74.8 ± 4.36 µM; GI50 (DU145; [4]): 64.2 ± 10.9 µM; GI50 (Huh7; 72 h): > 100 µM; GI50 (A549; [5]): 39.4 ± 26.2 µM
COc1cc2c(cc1OC)-c1ccc3cc4c(cc3c1N(CCN1CCCC1)C2)OCO4 [Compound 28a, 2,3-Dimethoxy-12-(2-(pyrrolidin-1-yl)ethyl)-12,13-dihydro-[1,3]dioxolo[4′,5′:4,5]benzo[1,2-c]phenanthrdine] |  |  |  |  |  | GI50 (CCRF-CEM): 1.25 ± 0.18 µM; GI50 (HCT116; [3]): 4.25 ± 3.11 µM; GI50 (DU145; [4]): 2.04 ± 0.41 µM; GI50 (Huh7; 72 h): 8.07 ± 1.3 µM; TDP1 inhibition (Tdp1): 0%; GI50 (A549; [5]): 6.59 ± 1.29 µM
COc1cc2c(=O)n(CCN(C)S(=O)(=O)C(F)(F)F)c3c4cc5c(cc4ccc3c2cc1OC)OCO5 [Compound 51, N-(2-(2,3-dimethoxy-13-oxo-[1,3]dioxolo[4′5′:4,5]benzo[1,2-c]phenanthridin-12(13H)-yl)ethyl)-1,1,1-trifluoro-N-methylmethanesulfonamide] |  | 35 ± 1.7 µM | 86 ± 2.5 µM | 65 ± 1.2 µM | 42 ± 0.98 µM | 
COc1cc2c(=O)n(CCN(C)S(=O)(=O)C3CC3)c3c4cc5c(cc4ccc3c2cc1OC)OCO5 [Compound 52, N-(2-(2,3-dimethoxy-13-oxo-[1,3]dioxolo[4′,5′:4,5]benzo[1,2-c]phenanthridin-12(13H)-yl)ethyl)-N-methylcyclopropanesulfonanide] | + (+, between 20% and 50% activity) | 5.8 ± 0.89 µM | 7.9 ± 0.15 µM | 10 ± 1.2 µM | 15 ± 1.5 µM | 
COc1cc2c(=O)n(CCN(C)S(=O)(=O)N3CCCC3)c3c4cc5c(cc4ccc3c2cc1OC)OCO5 [Compound 54, N-(2-(2,3-dimethoxy-13-oxo-[1,3]dioxolo[4,5′:4,5]benzo[1,2-c]phenanthridin-12(13H)-yl)ethyl)-N-methylpyrrolidine-1-sulfonamide] | + (+, between 20% and 50% activity) | 3.8 ± 0.25 µM | 2.5 ± 0.18 µM | 3.1 ± 0.3 µM | 5.3 ± 0.41 µM | 
COc1cc2c(=O)n(CCN(C)S(=O)(=O)N3CCOCC3)c3c4cc5c(cc4ccc3c2cc1OC)OCO5 [Compound 55, N-(2-(2,3-dimethoxy-13-oxo-[1,3]dioxolo[4′,5′:4,5]benzo[1,2-c]phenanthridin-12(13H)-yl)ethyl)-N-methylmorpholine-4-sulfonamide] | + (+, between 20% and 50% activity) | 64 ± 0.57 µM | 40 ± 1.2 µM | 48 ± 1.2 µM | 35 ± 2.5 µM | 
COc1cc2c(=O)n(CCNS(=O)(=O)C3CC3)c3c4cc5c(cc4ccc3c2cc1OC)OCO5 [Compound 58, N-(2-(2,3-dimethoxy-13-oxo-[1,3]dioxolo[4′,5′:4,5]benzo[1,2-c]phenanthridin-12(13H)-yl)ethyl)cyclopropanesulfonamide] | ++ (++, between 50% and 75% activity) | 3 ± 0.63 µM | 5.2 ± 0.13 µM | 1.3 ± 0.32 µM | 4.3 ± 0.21 µM | 
COc1cc2c(=O)n(CCNS(=O)(=O)N(C)C)c3c4cc5c(cc4ccc3c2cc1OC)OCO5 [Compound 59, N-(2-(2,3-dimethoxy-13-oxo-[1,3]dioxolo[4′,5′:4,5]benzo[1,2-c]phenanthridin-12(13H)-yl)ethyl)dimethylamine-1-sulfonamide] | + (+, between 20% and 50% activity) | 21 ± 1 µM | 30 ± 2.1 µM | 45 ± 1.2 µM | 35 ± 0.14 µM | 
COc1cc2c(=O)n(CCNS(=O)(=O)N3CCCC3)c3c4cc5c(cc4ccc3c2cc1OC)OCO5 [Compound 60, N-(2-(2,3-dimethoxy-13-oxo-[1,3]dioxolo[4′,5′:4,5]benzo[1,2-c]phenanthridin-12(13H)-yl)ethyl)pyrrolidine-1-sulfonamide] |  | 38 ± 0.78 µM | 34 ± 1.1 µM | 79 ± 1 µM | 61 ± 0.15 µM | 
COc1cc2c(=O)n(CCNS(=O)(=O)N3CCOCC3)c3c4cc5c(cc4ccc3c2cc1OC)OCO5 [Compound 61, N-(2-(2,3-dimethoxy-13-oxo-[1,3]dioxolo[4′,5′:4,5]benzo[1,2-c]phenanthridin-12(13H)-yl)ethyl)morpholine-4-sulfonamide] | ++ (++, between 50% and 75% activity) | 0.89 ± 0.12 µM | 1.1 ± 0.047 µM | 1.6 ± 0.021 µM | 2.9 ± 0.027 µM | 
COc1cc2c(=O)n(CCNP(=O)(OC)OC)c3c4cc5c(cc4ccc3c2cc1OC)OCO5 [Compound 62, Dimethyl(2-(2,3-dimethoxy-13-oxo-[1,3]dioxolo[4′,5′:4,5]benzo[1,2-c]phenanthridin-12(13H)-yl)ethyl)phosphoramidate] |  | 48 ± 1.9 µM | 51 ± 1.5 µM | 39 ± 2.2 µM | 41 ± 2 µM | 
COc1cc2c(=O)n(CCNC(=O)C3CC3)c3c4cc5c(cc4ccc3c2cc1OC)OCO5 [Compound 63, N-(2-(2,3-dimethoxy-13-oxo-[1,3]dioxolo[4,5′:4,5]benzo[1,2-c]phenanthridin-12(13H)-yl)ethyl)cyclopropanecarboxamide] | + (+, between 20% and 50% activity) | 2.2 ± 0.27 µM | 5.3 ± 0.11 µM | 7.8 ± 0.52 µM | 1.3 ± 0.006 µM | 
Dimethyl(2-(2,3-dimethoxy-13-oxo-[1,3]dioxolo[4′,5′:4,5]benzo[1,2-c]phe-nanthridin-12(13H)-yl)ethyl)(methyl)phosphoramidate [Compound 56] | ++ (++, between 50% and 75% activity) | 10 ± 0.54 µM | 9.2 ± 0.14 µM | 5.3 ± 0.21 µM | 14 ± 1.4 µM | 
N-(2-(2,3-dimethoxy-13-oxo-[1,3]dioxolo[4′,5′:4,5]benzo[1,2-c]phenanthridin-12(13H)-yl)ethyl)-N-methyldiethylamine-1-sulfonamide [Compound 53] | + (+, between 20% and 50% activity) | 1.5 ± 0.15 µM | 0.96 ± 0.04 µM | 15 ± 0.59 µM | 7.9 ± 0.23 µM | 
